Measured values taken from patent US20230219904A1 (SYNGENTA CROP PROTECTION AG, priority 2020, published 2023).

How the values were obtained:
Assay type in all cases: in vivo
Conditions in all cases: applied at 125 g/ha, evaluated after 13 days
[1] = system: Abutilon theophrasti (ABUTH); assay: Pre-emergence herbicidal glasshouse test (Table B1)
Protocol: (§1) Seeds of a variety of test species are sown in standard soil in pots (Lolium perenne (LOLPE), Amaranthus retoflexus (AMARE), Abutilon theophrasti (ABUTH), Setaria faberi (SETFA), Echinochloa crus-galh (ECHCG), Ipomoea hederacea (IPOHE)). After cultivation for one day (pre-emergence) or after 8 days cultivation (post-emergence) under controlled conditions in a glasshouse (at 24/16° C., day/night; 14 hours light; 65% humidity), the plants are sprayed with an aqueous spray solution derived from the formulation of the technical active ingredient in acetone/water (50:50) solution containing 0.5% Tween 20 (polyoxyethelyene sorbitan monolaurate, CAS RN 9005-64-5). Compounds are applied at 500 g/h unless otherwise indicated. The test plants are then grown in a glasshouse under controlled conditions in a glasshouse (at 24/16° C., day/night; 14 hours light; 65% humidity) and watered twice daily. After 13 days for pre and post-emergence, the test is evaluated for the percentage damage caused to the plant. The biological activities are shown in the following table on a five-point scale (5=80-100%; 4=60-79%; 3=40-59%; 2=20-39%; 1=0-19%).

[2] = system: Amaranthus retoflexus (AMARE); assay: as above
Protocol: as §1

[3] = system: Echinochloa crus-galh (ECHCG); assay: as above
Protocol: as §1

[4] = system: Ipomoea hederacea (IPOHE); assay: as above
Protocol: as §1

[5] = system: Setaria faberi (SETFA); assay: as above
Protocol: as §1

[6] = system: Amaranthus retoflexus (AMARE); assay: Post-emergence herbicidal glasshouse test (Table B1)
Protocol: as §1

[7] = system: Echinochloa crus-galh (ECHCG); assay: as above
Protocol: as §1

[8] = system: Ipomoea hederacea (IPOHE); assay: as above
Protocol: as §1

[9] = system: Setaria faberi (SETFA); assay: as above
Protocol: as §1

Row | Compound | PRE Application ABUTH, percentage damage on five-point scale [1] | PRE Application AMARE, percentage damage on five-point scale [2] | PRE Application ECHCG, percentage damage on five-point scale [3] | PRE Application IPOHE, percentage damage on five-point scale [4] | PRE Application SETFA, percentage damage on five-point scale [5] | POST Application AMARE, percentage damage on five-point scale [6] | POST Application ECHCG, percentage damage on five-point scale [7] | POST Application IPOHE, percentage damage on five-point scale [8] | POST Application SETFA, percentage damage on five-point scale [9]
1 | CCn1nnnc1NC(=O)c1ccc(OC(F)(F)F)c(NC(=O)C2(C)CC2)c1Cl [Compound 1.075] | 5 (5=80-100%) | 5 (5=80-100%) | 5 (5=80-100%) | 5 (5=80-100%) | 5 (5=80-100%) | 4 (4=60-79%) | 4 (4=60-79%) | 4 (4=60-79%) | 5 (5=80-100%)
2 | Cn1cc(C(=O)Nc2c(OC(F)(F)F)ccc(C(=O)Nc3nnnn3C)c2Cl)c(C(F)F)n1 [Compound 1.045] | 5 (5=80-100%) | 5 (5=80-100%) | 5 (5=80-100%) | 4 (4=60-79%) | 5 (5=80-100%) | 5 (5=80-100%) | 5 (5=80-100%) | 4 (4=60-79%) | 5 (5=80-100%)
3 | CCn1nnnc1NC(=O)c1ccc(OC(F)(F)F)c(NC(=O)CCCOC)c1Cl [Compound 1.067] | 5 (5=80-100%) | 5 (5=80-100%) | 5 (5=80-100%) | 5 (5=80-100%) | 5 (5=80-100%) | 5 (5=80-100%) | 5 (5=80-100%) | 4 (4=60-79%) | 5 (5=80-100%)
4 | CCC(=O)Nc1c(OC(F)F)ccc(C(=O)Nc2nnnn2C)c1C(F)(F)F [Compound 1.096] | 3 (3=40-59%) | 4 (4=60-79%) | 1 (1=0-19%) | 3 (3=40-59%) | 1 (1=0-19%) | 4 (4=60-79%) | 4 (4=60-79%) | 3 (3=40-59%) | 3 (3=40-59%)
5 | CCC(COC)C(=O)Nc1c(OC(F)(F)F)ccc(C(=O)Nc2nnnn2CC)c1Cl (stereo not drawn) [Compound 1.069] | 5 (5=80-100%) | 5 (5=80-100%) | 5 (5=80-100%) | 4 (4=60-79%) | 5 (5=80-100%) | 4 (4=60-79%) | 5 (5=80-100%) | 4 (4=60-79%) | 5 (5=80-100%)
6 | CCOCCC(=O)Nc1c(OC(F)(F)F)ccc(C(=O)Nc2nnnn2C)c1Cl [Compound 1.057] | 5 (5=80-100%) | 5 (5=80-100%) | 5 (5=80-100%) | 5 (5=80-100%) | 4 (4=60-79%) | 5 (5=80-100%) | 5 (5=80-100%) | 4 (4=60-79%) | 5 (5=80-100%)
7 | CCCOCC(=O)Nc1c(OC(F)(F)F)ccc(C(=O)Nc2nnnn2CC)c1Cl [Compound 1.070] | 5 (5=80-100%) | 5 (5=80-100%) | 4 (4=60-79%) | 4 (4=60-79%) | 4 (4=60-79%) | 4 (4=60-79%) | 4 (4=60-79%) | 4 (4=60-79%) | 4 (4=60-79%)
